Values joined by “and” are separate entries in the source; they are usually repeats but may differ in a detail not shown here. Equal values may be shown once. Inconclusive results and toxic doses are left out.
System: BDF1 mice, P388 leukemia ip, median survival T/C
Test: NCI In Vivo Anticancer Drug Screen. Data for tumor model P388 Leukemia (intraperitoneal) in B6D2F1 (BDF1) mice
Details: endpoint: median survival time, higher = longer survival
Procedure, shortened: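 Read-out is survival of treated animals expressed relative to the vehicle group, as a T/C ratio.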

[1] = dose: 100.0 mg/kg/injection, schedule: Q01DX009 (ip), vehicle: saline with Tween-80
[2] = dose: 100.0 mg/kg/injection, schedule: Q04DX003 (ip), vehicle: saline
[3] = dose: 200.0 mg/kg/injection, schedule: Q04DX003 (ip), vehicle: saline
[4] = dose: 400.0 mg/kg/injection, schedule: Q04DX003 (ip), vehicle: saline
[5] = dose: 50.0 mg/kg/injection, schedule: Q01DX009 (ip), vehicle: saline with Tween-80
[6] = dose: 200.0 mg/kg/injection, schedule: Q01DX009 (ip), vehicle: saline with Tween-80
[7] = dose: 100.0 mg/kg/injection, schedule: Q01DX009 (ip), vehicle: other
[8] = dose: 100.0 mg/kg/injection, schedule: Q04DX003 (ip), vehicle: other
[9] = dose: 200.0 mg/kg/injection, schedule: Q01DX009 (ip), vehicle: other
[10] = dose: 200.0 mg/kg/injection, schedule: Q04DX003 (ip), vehicle: other
[11] = dose: 50.0 mg/kg/injection, schedule: Q04DX003 (ip), vehicle: saline with Tween-80
[12] = dose: 100.0 mg/kg/injection, schedule: Q04DX003 (ip), vehicle: saline with Tween-80
[13] = dose: 200.0 mg/kg/injection, schedule: Q04DX003 (ip), vehicle: saline with Tween-80
[14] = dose: 400.0 mg/kg/injection, schedule: Q04DX003 (ip), vehicle: saline with Tween-80

Compound: O=c1[nH]c2ccc(Br)cc2c(=O)o1
- T/C (dose: 25.0 mg/kg/injection, schedule: Q01DX001 (ip), vehicle: Klucel (hydroxypropylcellulose) (HPC)): 104 % of control
- T/C (dose: 35.0 mg/kg/injection, schedule: Q01DX001 (ip), vehicle: Klucel (hydroxypropylcellulose) (HPC)): 109 % of control
- T/C (dose: 50.0 mg/kg/injection, schedule: Q01DX001 (ip), vehicle: Klucel (hydroxypropylcellulose) (HPC)): 104 % of control
- T/C (dose: 75.0 mg/kg/injection, schedule: Q01DX001 (ip), vehicle: Klucel (hydroxypropylcellulose) (HPC)): 95 % of control
- T/C [1]: 150 % of control
- T/C (dose: 250.0 mg/kg/injection, schedule: Q01DX001 (ip), vehicle: Klucel (hydroxypropylcellulose) (HPC)): 92 % of control
- T/C (dose: 400.0 mg/kg/injection, schedule: Q01DX001 (ip), vehicle: Klucel (hydroxypropylcellulose) (HPC)): 88 % of control

Compound: CC(C)(S)C(N)C(=O)O (stereo not drawn)
- T/C (dose: 50.0 mg/kg/injection, schedule: Q01DX009 (ip), vehicle: saline): 86 % of control
- T/C (dose: 100.0 mg/kg/injection, schedule: Q01DX009 (ip), vehicle: saline): 90 % of control
- T/C [2]: 91 % of control
- T/C (dose: 200.0 mg/kg/injection, schedule: Q01DX009 (ip), vehicle: saline): 90 % of control
- T/C [3]: 91 % of control
- T/C [4]: 100 % of control

Compound: N=C1C=C[C@]2(O)C[C@H](Cl)CN12
- T/C (dose: 0.38 mg/kg/injection, schedule: Q01DX009 (ip), vehicle: saline): 104 % of control
- T/C (dose: 0.75 mg/kg/injection, schedule: Q01DX009 (ip), vehicle: saline): 104 % of control
- T/C (dose: 1.5 mg/kg/injection, schedule: Q01DX009 (ip), vehicle: saline): 114 % of control
- T/C (dose: 3.0 mg/kg/injection, schedule: Q01DX009 (ip), vehicle: saline): 98 % of control
- T/C (dose: 6.0 mg/kg/injection, schedule: Q01DX009 (ip), vehicle: saline): 117 % of control

Compound: CCOCN(COCC)c1cccc(Cl)c1
- T/C [5]: 100 % of control and 115 % of control
- T/C [1]: 118 % of control
- T/C [6]: 118 % of control

Compound: Cc1c(OCc2ccccc2)cccc1[N+](=O)[O-]
- T/C [7]: 109 % of control
- T/C [8]: 113 % of control
- T/C [9]: 119 % of control
- T/C [10]: 100 % of control
- T/C (dose: 400.0 mg/kg/injection, schedule: Q01DX009 (ip), vehicle: other): 109 % of control
- T/C (dose: 400.0 mg/kg/injection, schedule: Q04DX003 (ip), vehicle: other): 109 % of control

Compound: CC(=O)C(C)(CCC#N)CCC#N
- T/C [11]: 104 % of control
- T/C [12]: 100 % of control

Compound: CN(C)c1ccc(/C=C2\SC(=S)N(Cc3ccco3)C2=O)cc1
- T/C [5]: 92 % of control
- T/C [1]: 91 % of control
- T/C [6]: 88 % of control

Compound: CCOC(=O)CCC(C)(C#N)c1ccccc1 (stereo not drawn)
- T/C [5]: 100 % of control
- T/C [12]: 95 % of control
- T/C [13]: 91 % of control
- T/C [14]: 100 % of control

Compound: CC(=O)[C@H]1CC[C@H]2[C@@H]3CCC4=CC(=O)[C@H](C)C[C@]4(C)[C@@]3(F)C(=O)C[C@]12C
- T/C [1]: 95 % of control
- T/C [12]: 120 % of control
- T/C [6]: 90 % of control
- T/C [13]: 110 % of control
- T/C [14]: 100 % of control

Compound: Cc1ccc(S(=O)(=O)N/N=C2/C(=N/NS(=O)(=O)c3ccc(C)cc3)C3CCC2C3)cc1
- T/C (dose: 50.0 mg/kg/injection, schedule: Q01DX009 (ip), vehicle: other): 105 % of control
- T/C [7]: 96 % of control
- T/C [9]: 95 % of control

Compound: C1CO[Te]2(O1)OCCO2
- T/C (dose: 12.5 mg/kg/injection, schedule: Q04DX003 (ip), vehicle: saline with Tween-80): 97 % of control
- T/C (dose: 25.0 mg/kg/injection, schedule: Q04DX003 (ip), vehicle: saline with Tween-80): 88 % of control
- T/C [11]: 88 % of control

Compound: c1csc(NC(Nc2nccs2)C2CCCCC2)n1
- T/C [5]: 101 % of control
- T/C [1]: 96 % of control
- T/C [6]: 96 % of control

Compound: O=[N+]([O-])c1ccccc1N=P(c1ccccc1)(c1ccccc1)c1ccccc1
- T/C (dose: 50.0 mg/kg/injection, schedule: Q01DX009 (ip), vehicle: DMSO): 109 % of control
- T/C (dose: 50.0 mg/kg/injection, schedule: Q04DX003 (ip), vehicle: DMSO): 100 % of control
- T/C (dose: 100.0 mg/kg/injection, schedule: Q01DX009 (ip), vehicle: DMSO): 104 % of control
- T/C (dose: 100.0 mg/kg/injection, schedule: Q04DX003 (ip), vehicle: DMSO): 104 % of control
- T/C (dose: 200.0 mg/kg/injection, schedule: Q04DX003 (ip), vehicle: DMSO): 90 % of control

Compound: Cc1cc(O)c2c(c1)C(=O)C(c1c(C)cc3c(c1O)C(=O)C=CC3=O)=CC2=O
- T/C (dose: 1.25 mg/kg/injection, schedule: Q01DX009 (ip), vehicle: saline): 89 % of control
- T/C (dose: 2.5 mg/kg/injection, schedule: Q01DX009 (ip), vehicle: saline): 114 % of control
- T/C (dose: 5.0 mg/kg/injection, schedule: Q01DX009 (ip), vehicle: saline): 102 % of control
- T/C (dose: 10.0 mg/kg/injection, schedule: Q01DX009 (ip), vehicle: saline): 105 % of control and 116 % of control
- T/C (dose: 14.0 mg/kg/injection, schedule: Q01DX009 (ip), vehicle: saline): 106 % of control
- T/C (dose: 22.0 mg/kg/injection, schedule: Q01DX009 (ip), vehicle: saline): 116 % of control
- T/C (dose: 35.0 mg/kg/injection, schedule: Q01DX009 (ip), vehicle: saline): 99 % of control

Compound: C(#C[P+]1(c2ccccc2)C=C(c2ccccc2)OC(c2ccccc2)=C1)c1ccccc1
- T/C (dose: 50.0 mg/kg/injection, schedule: Q01DX005 (ip), vehicle: saline with Tween-80): 110 % of control

Compound: NC(CSC(c1ccccc1)(c1ccccc1)c1ccccc1)C(=O)O (stereo not drawn)
- T/C (dose: 3.0 mg/kg/injection, schedule: Q01DX009 (ip), vehicle: Klucel (hydroxypropylcellulose) (HPC)): 122 % of control
- T/C (dose: 4.8 mg/kg/injection, schedule: Q04DX003 (ip), vehicle: Klucel (hydroxypropylcellulose) (HPC)): 108 % of control
- T/C (dose: 7.2 mg/kg/injection, schedule: Q04DX003 (ip), vehicle: Klucel (hydroxypropylcellulose) (HPC)): 100 % of control
- T/C (dose: 10.0 mg/kg/injection, schedule: Q01DX009 (ip), vehicle: Klucel (hydroxypropylcellulose) (HPC)): 175 % of control
- T/C (dose: 14.4 mg/kg/injection, schedule: Q01DX009 (ip), vehicle: other): 150 % of control
- T/C (dose: 16.0 mg/kg/injection, schedule: Q01DX009 (ip), vehicle: Klucel (hydroxypropylcellulose) (HPC)): 177 % of control
- T/C (dose: 24.0 mg/kg/injection, schedule: Q01DX009 (ip), vehicle: other): 115 % of control
- T/C (dose: 25.0 mg/kg/injection, schedule: Q01DX009 (ip), vehicle: Klucel (hydroxypropylcellulose) (HPC)): 200 % of control and 204 % of control
- T/C (dose: 25.0 mg/kg/injection, schedule: Q04DX003 (ip), vehicle: Klucel (hydroxypropylcellulose) (HPC)): 231 % of control
- T/C (dose: 35.0 mg/kg/injection, schedule: Q01DX009 (ip), vehicle: Klucel (hydroxypropylcellulose) (HPC)): 227 % of control
- T/C (dose: 40.0 mg/kg/injection, schedule: Q01DX009 (ip), vehicle: other): 123 % of control
- T/C (dose: 50.0 mg/kg/injection, schedule: Q01DX009 (ip), vehicle: Klucel (hydroxypropylcellulose) (HPC)): 86 % of control
- T/C (dose: 50.0 mg/kg/injection, schedule: Q04DX003 (ip), vehicle: Klucel (hydroxypropylcellulose) (HPC)): 186 % of control
- T/C (dose: 66.0 mg/kg/injection, schedule: Q04DX003 (ip), vehicle: saline): 272 % of control
- T/C (dose: 100.0 mg/kg/injection, schedule: Q04DX003 (ip), vehicle: Klucel (hydroxypropylcellulose) (HPC)): 240 % of control
- T/C [2]: 90 % of control

Compound: O=CN(c1ccccc1)c1ccccc1
- T/C [5]: 110 % of control
- T/C (dose: 100.0 mg/kg/injection, schedule: Q01DX001 (ip), vehicle: other): 104 % of control
- T/C [1]: 95 % of control
- T/C [8]: 91 % of control
- T/C [2]: 95 % of control
- T/C (dose: 175.0 mg/kg/injection, schedule: Q04DX003 (ip), vehicle: saline with Tween-80): 115 % of control
- T/C (dose: 200.0 mg/kg/injection, schedule: Q01DX001 (ip), vehicle: other): 108 % of control
- T/C [6]: 100 % of control
- T/C [10]: 116 % of control
- T/C [3]: 100 % of control
- T/C (dose: 400.0 mg/kg/injection, schedule: Q01DX001 (ip), vehicle: other): 87 % of control
- T/C (dose: 400.0 mg/kg/injection, schedule: Q01DX009 (ip), vehicle: saline with Tween-80): 105 % of control
- T/C [14]: 150 % of control
- T/C [4]: 86 % of control

Source: PubChem BioAssay AID328 (DTP/NCI, 2004)
